Results taken from patent US20170266266A1, “Functions of 55 Newfound Proteins and Their Medicinal Application in the Treatment and Prevention of Disease” (priority 2012, published 2017).

What was measured:
[1] = test system: HBV; assay: Efficacy of RAAS-8 in the HBV mouse hydrodynamic injection model; format: in vivo, BALB/c mice
Description: 3.1 Hydrodynamic Injection and Compound Administration • 3.1.1. From day −7 to day 0, all 5 mice in group 4 were administrated i.p./i.v. with test article daily for 8 • days according to Table 2. • 3.1.2. On day 0, all groups of mice were hydrodynamicly injected via tail vein with pcDNA3.1/HBV plasmid DNA in a volume of normal saline equal to 8% of a mouse body weight. The plasmid DNA solution for injections was prepared one day before injection and then stored in 4E until injection. • 3.1.3. From day 0 to day 5, mice in groups 1-3 were weighed and treated with compounds or vehicle according to the regimen in Table 2. For groups 1 and 3, the first dosing was executed 4 hours pre HDI. For groups 2, the first dosing was executed 4 hours post HDI. For group 4, the last dosing was carried out 4 hours post HDI. • 3.1.4. All mice were submandibularly bled for plasma preparation according to the design in Table 1. • 3.1.5. All mice were sacrificed and dissected to obtain livers (two pieces of left lobe, one piece of middle lobe and one piece of right lobe) according to the regimen in table 1. Isolated livers were snap frozen in liquid nitrogen immediately upon collected.
3.2.1 Detect HBV DNA Replication Level in Plasma • 3.2.1.1 Isolate DNA from 50 μl plasma using QIAamp 96 DNA Blood Kit. DNA was eluted with 120 μl ddH2O. • 3.2.1.2. Run qPCR for HBV DNA quantification. • a) Dilute HBV plasmid standard by 10-fold from 10^7 copies/μl to 10 copies/μl. • b) Prepare qPCR mix as shown below.
To eliminate the influence of input HBV plasmid, primers and probe targeting HBV sequence which detect newly replicated HBV DNA and input HBV plasmid DNA and targeting pcDNA3.1 plasmid backbone sequence which only detect the input plasmid DNA were used to do real-time PCR, respectively.
HBV DNA quantity=DNA determined by HBV primer-DNA determined by plasmid primer.
Dilute the plasma 500 fold;
Detect HBsAg level in 50 μl diluted plasma by using HBsAg ELISA kit.
3.2.3.1 Liver DNA Isolation • a) Homogenize the liver tissue with Qiagen Tissue Lyser in 10 mM Tris.HCl, 10 mM EDTA, pH7.5. • b) Spin samples. Transfer the supernatant to a new tube containing equal volume of 2× proteinase K digestion buffer. Incubate at 50[…] for 3 hours. • c) Extract with phenol: chloroform: Isoamyl alcohol. • d) Transfer the upper phase to new tubes, add RNase A and incubate at 37° C. for 30 min. • e) Extract with phenol: chloroform: Isoamyl alcohol. • f) Transfer the upper phase to new microfuge tubes, add 0.7-1 volume of isopropanol, add GlycoBlue Coprecipitant to 50 μg/mL, incubate at −20[…] for 30 min. • g) Centrifuge (12000 g, 10 min) to precipitate DNA. • h) Wash the precipitate with 70% ethanol. Dissolve it in 25 μl ddH2O. Store DNA at −20[…] until use.
The total liver DNA was diluted to 10 ng/μl. […]

[2] = test system: HBV; assay: Efficacy of AFOD RAAS 105 in the HBV mouse hydrodynamic injection model; format: in vivo, BALB/c mice
Description: From day −7 to day 0, mice in groups 6-7 are administrated IP/IV by turn with test article daily for 8 days according to Table 3.
On day 0, mice from group 1 to group 7 are hydrodynamically injected through tail vein with pcDNA3.1/HBV plasmid DNA in a volume of normal saline equal to 8% of a mouse body weight within 5 seconds. The plasmid DNA solution for injections is prepared before injection.
From day 0 to day 4, mice in groups 3-5 are administrated IP/IV by turn with test article daily for 5 days according to Table 2. From day 0 to day 4, mice in groups 1 and 2 are administrated PO with vehicle or ETV daily for 5 days according to Table 1. For groups 1-5, the first dosing is executed 4 hours post hydrodynamic injection. For groups 6-7, the last dosing is executed 4 hours pre hydrodynamic injection.
Mice from group 1 to group 7 are submandibularly bled for plasma preparation according to the design in Table 1. The blood samples will be collected in a tube containing heparin sodium and centrifuged at 7000×g and 4° C. for 10 min to obtain plasma samples.
On day 5, all mice in groups 1-7 are sacrificed and dissected to obtain livers (two pieces of left lobe, one piece of middle lobe and one piece of right lobe) according to the regimen in table 1. […]
Run qPCR for HBV DNA quantification. • a. […]
HBV DNA quantity=DNA determined by HBV primer-DNA determined by plasmid primer. […]

[3] = test system: adjuvant-induced arthritis; assay: Adjuvant-Induced Arthritis (AIA) in Lewis rats; conditions: 35 days and 45 days treatment sections

Structure (SMILES)	ssDNA in liver by southern blot ([1]; RASS 8 prophylactic treatment or ETV treatment)	HBV intermediate DNA in liver by real-time PCR ([1]; day 5)	HBsAg level in plasma ([1]; therapeutic treatment, within 5 days post HDI)	inhibition to HBV replication (plasma HBV DNA) ([1]; therapeutically-treated, day 3 post HDI to end)	HBV replication in livers by real-time PCR ([2]; day 5)	HBsAg generation ([2]; oral 0.1 mg/kg, day 3)	body weight vs saline group [3]
C=C1[C@H](CO)[C@@H](O)C[C@@H]1n1cnc2c(=O)[nH]c(N)nc21 [entecavir, Entecavir, reference compound]	decreased dramatically	significantly decreased	didn't have significant inhibition	significant inhibition	significantly inhibited HBV replication in livers	significant increase	–
C[C@@H]1C[C@H]2[C@@H]3CCC4=CC(=O)C=C[C@]4(C)[C@@]3(F)[C@@H](O)C[C@]2(C)[C@@]1(O)C(=O)CO [Dex, Dexamethasone]	–	–	–	–	–	–	reduction of body weight
